From patent US20200024278A1, “COMPOSITION COMPRISING ANTIBIOTIC COMPOUND AND AN HETEROCYCLIC COMPOUND AND THEIR USE IN PREVENTING OR TREATING BACTERIAL INFECTIONS” (MUTABILIS, priority 2016, published 2020)

Columns and labels:
Assay in all cases: MIC, broth microdilution (CLSI), substance alone or ATB combined with compound at 4 or 8 μg/mL
SPN 49619 = assay type: cell-based, S. pneumoniae; conditions: SPN 49619; for MIC ATB combined with compound / MIC ATB combined with Example compound: compound @8 μg/ml
How it was run: (§1)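 Growth inhibition endpoint, read visually after 16-20 h at 35° C in ambient air. Cation-adjusted Mueller-Hinton broth, inoculum 5·10^5 CFU/mL, CLSI M7-A7 protocol.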

SAU 29213 = assay type: cell-based, S. aureus; conditions: for MIC ATB combined with compound / MIC ATB combined with Example compound: compound @8 μg/ml, SAU 29213
How it was run: as §1

ECL P99 = assay type: cell-based, E. cloacae; conditions: ECL P99
How it was run: as §1

ECO UFR39 = assay type: cell-based, E. coli; conditions: ECO UFR39; for MIC ATB combined with Example compound: compound @8 μg/ml
How it was run: as §1

ECO 190317 = assay type: cell-based, E. coli; conditions: ECO 190317
How it was run: as §1

KPN UFR42 = assay type: cell-based, K. pneumoniae; conditions: KPN UFR42; for MIC ATB combined with Example compound: compound @8 μg/ml
How it was run: as §1

KPN 6299 = assay type: cell-based, K. pneumoniae; conditions: MIC of CIP, compound @8 μg/ml
How it was run: as §1

KPN BAA-1898 = assay type: cell-based, K. pneumoniae; conditions: KPN BAA-1898
How it was run: as §1

ABA UFR155 = assay type: cell-based, A. baumannii; conditions: Acinetobacter baumannii, substance alone, read-out: MIC
How it was run: as §1

ABA UFR154 = assay type: cell-based, A. baumannii; conditions: Acinetobacter baumannii, substance alone, read-out: MIC
How it was run: as §1

PAE UFR48 = assay type: cell-based, P. aeruginosa; conditions: PAE UFR48; for MIC ATB combined with compound / MIC ATB combined with Example compound: compound @8 μg/ml
How it was run: as §1

PAE 105250 = assay type: cell-based, P. aeruginosa; conditions: PAE 105250; for MIC ATB combined with compound / MIC ATB combined with Example compound: compound @8 μg/ml
How it was run: as §1

PAE UFR90 = assay type: cell-based, P. aeruginosa; conditions: PAE UFR90; for MIC ATB combined with compound / MIC ATB combined with Example compound: compound @8 μg/ml
How it was run: as §1

[1] = Escherichia coli, substance alone, read-out: MIC
[2] = Pseudomonas aeruginosa, substance alone, read-out: MIC

NC[C@H]1C=C(c2cnco2)[C@@H]2CN1C(=O)N2OS(=O)(=O)[O-].O=C(O)C(F)(F)F.[Na+] (relative stereo) [Example 1, sodium and 2,2,2-trifluoroacetate [trans-2-(azaniumylmethyl)-4-oxazol-5-yl-7-oxo-1,6-diazabicyclo[3.2.1]oct-3-en-6-yl] sulfate]
4 µg/mL: MIC ATB combined with compound (SAU 29213; ATB FEP) | MIC (PAE UFR48; [2]) | MIC ATB combined with compound (PAE 105250; ATB FOS)
<0.031 µg/mL: MIC ATB combined with Example compound (ECL P99; MIC of CIP, compound @8 μg/ml) | MIC ATB combined with Example compound (ECO UFR39; MIC of CIP) | MIC ATB combined with Example compound (ECO UFR39; MIC of CPO) | MIC ATB combined with Example compound (ECO 190317; MIC of CIP, compound @8 μg/ml) | MIC ATB combined with compound (PAE UFR48; ATB ATM) | MIC ATB combined with compound (PAE UFR48; ATB FEP) | MIC ATB combined with compound (PAE UFR48; ATB MEM) | MIC ATB combined with compound (PAE UFR48; ATB PIP) | MIC ATB combined with Example compound (PAE UFR48; MIC of CIP) | MIC ATB combined with Example compound (PAE UFR48; MIC of CPO) | MIC ATB combined with compound (PAE 105250; ATB ATM) | MIC ATB combined with compound (PAE 105250; ATB FEP) | MIC ATB combined with compound (PAE 105250; ATB MEM) | MIC ATB combined with compound (PAE 105250; ATB PIP) | MIC ATB combined with Example compound (PAE 105250; MIC of CIP) | MIC ATB combined with Example compound (PAE 105250; MIC of CPO) | MIC ATB combined with compound (PAE UFR90; ATB ATM) | MIC ATB combined with compound (PAE UFR90; ATB FEP) | MIC ATB combined with compound (PAE UFR90; ATB MEM) | MIC ATB combined with compound (PAE UFR90; ATB PIP) | MIC ATB combined with Example compound (PAE UFR90; MIC of CIP) | MIC ATB combined with Example compound (PAE UFR90; MIC of CPO)
16 µg/mL: MIC ATB combined with Example compound (KPN UFR42; MIC of CPO) | MIC ATB combined with Example compound (KPN BAA-1898; MIC of CIP, compound @8 μg/ml)
> 32 µg/mL: MIC (SPN 49619; Streptococcus pneumoniae, substance alone, read-out: MIC) | MIC (SAU 29213; Staphylococcus aureus, substance alone, SAU 29213 (MSSA 29213), read-out: MIC) | MIC (KPN UFR42; Klebsiella pneumoniae, substance alone, read-out: MIC) | MIC (KPN BAA-1898; Klebsiella pneumoniae, BAA1898, substance alone, read-out: MIC) | MIC (ABA UFR155) | MIC (ABA UFR154) | MIC (PAE 105250; [2])
2 µg/mL: MIC ATB combined with Example compound (SAU 29213; MIC of LZD) | MIC ATB combined with compound (PAE UFR48; ATB FOS)
0.0078 µg/mL: MIC ATB combined with Example compound (SAU 29213; MIC of DAP) | MIC ATB combined with Example compound (SAU 29213; MIC of RIF)
0.063 µg/mL: MIC ATB combined with compound (SPN 49619; ATB FEP) | MIC ATB combined with compound (SPN 49619; ATB MEM) | MIC ATB combined with Example compound (SPN 49619; MIC of CLI) | MIC ATB combined with Example compound (SPN 49619; MIC of ERY) | MIC ATB combined with Example compound (SPN 49619; MIC of RIF)
0.031 µg/mL: MIC (ECL P99; Enterobacter cloacae, substance alone, read-out: MIC) | MIC (ECO UFR39; [1]) | MIC (ECO 190317; [1])
<=0.031 μg/mL: MIC ATB combined with Example compound (SPN 49619; MIC of CPO)
0.25 µg/mL: MIC ATB combined with Example compound (SPN 49619; MIC of VAN) | MIC ATB combined with Example compound (SAU 29213; MIC of ERY)
0.5 µg/mL: MIC ATB combined with compound (SPN 49619; ATB PIP) | MIC ATB combined with Example compound (SPN 49619; MIC of SYN) | MIC ATB combined with Example compound (SAU 29213; MIC of CIP) | MIC ATB combined with Example compound (SAU 29213; MIC of SYN) | MIC (PAE UFR90; [2])
0.125 µg/mL: MIC ATB combined with Example compound (SPN 49619; MIC of DAP) | MIC ATB combined with compound (SAU 29213; ATB MEM) | MIC ATB combined with Example compound (SAU 29213; MIC of CLI)
32 µg/mL: MIC ATB combined with compound (SPN 49619; ATB FOS) | MIC ATB combined with Example compound (KPN 6299)
>32 µg/mL: MIC ATB combined with compound (SPN 49619; ATB ATM) | MIC ATB combined with compound (SAU 29213; ATB ATM) | MIC ATB combined with Example compound (KPN UFR42; MIC of CIP)
<0.125 µg/mL: MIC ATB combined with compound (PAE UFR90; ATB FOS)
5 µg/mL: MIC ATB combined with compound (SAU 29213; ATB PIP)
1 µg/mL: MIC ATB combined with Example compound (SPN 49619; MIC of CIP) | MIC ATB combined with Example compound (SPN 49619; MIC of LZD) | MIC ATB combined with compound (SAU 29213; ATB FOS) | MIC ATB combined with Example compound (SAU 29213; MIC of CPO) | MIC ATB combined with Example compound (SAU 29213; MIC of VAN)
